The values below come from patent publication US8445431B2, “Ligands having metal binding ability and targeting properties” (The Ohio State University, priority 2004, dated 2013).

No end group written: not given here. Bounds are passed on as bounds.

In one assay the test system is RRE RNA. The assay can be described thus: RRE RNA cleavage, denaturing PAGE and mass spectrometry. The class given is biochemical, HIV. Conditions: for RRE RNA cleavage (PAGE / mass spectrometry): in the presence of ascorbate, 1:1 with RRE RNA, 37° C., 6 hours; for t1 of RRE RNA substrate decrease: [RRE]=5 μM, complex/RRE 1:1, 37° C. The protocol:
Control reactions were carried out at the same time (FIG. 18). The reactions were quenched with a loading buffer containing 8 M Urea and 0.5 M EDTA, but without dyes. The loading buffer with dyes was run in another lane to control the electrophoresis. The reaction samples were loaded onto either 15% or 20% polyacrylamide/8M urea denaturing gels (from American Bioanalytical) and electrophoresed at 300 V for 8 h. To avoid any influence on fluorescein, the reactions and gel eletrophoresis were performed in the dark. Each experiment was carried out at least in triplicate.
RNA cleavage reactions were performed in 40 μl total volumes with 100 μM unlabeled RRE RNA, 1:1 concentration ratio of Cu-peptide complex with 1 mM ascorbate in 20 mM Hepes buffer, 100 mM NaCl, pH=7.4 at 37° C. Control reactions were carried out with RRE RNA and ascorbate. ESI/MS was used to get the mass of the cleavage products. Electrospray ionization (ESI) experiments were performed on a Micromass Q-Tof™ II (Micromass, Wythenshawe, UK) mass spectrometer equipped with an orthogonal nanospray source from New Objective, Inc. (Woburn, Mass.) operated in negative ion mode. Sodium Iodide was used for mass calibration for a calibration range of m/z 500-3000. Salt buffers from the RNA samples were removed using ZipTips (Millipore, Billerica, Mass.) following recommended manufacturer protocols. The elutants from the ZipTip were used directly and infused into the electrospray source at a rate of […]. Optimal ESI conditions were: capillary voltage 3000 V, source temperature 110° C. and a cone voltage of 60 V. Q1 was set to optimally pass ions from m/z 500-3000 and all ions transmitted into the pusher region of the TOF analyzer were scanned over m/z (your ramge) with a 1 s integration time. Data was acquired in continuum mode until acceptable averaged data was obtained (10-15 minutes). ESI data was deconvoluted using MaxEnt I provided by Micromass (FIGS. 19-21) and the cleavage sites were assigned (FIG. 22).

Assay [1] has as its system pUC19 supercoiled plasmid DNA. The assay can be described thus: Plasmid DNA cleavage, agarose gel electrophoresis and quantitation. The format is biochemical. The protocol: Plasmid pUC19 (2686 bp) was purchased from New England Biolabs Inc. The plasmid was transformed into DH5α competent cells, amplified, and pure plasmid isolated using QIAGEN protocols. Fresh plasmid DNA (over 90-95% supercoiled) was prepared before each experiment to avoid contamination by any other form of plasmid DNA. In general, DNA cleavage experiments were performed with 50 μM base pair concentration of pUC19, 25 μM Cu-peptide, and 250 μM ascorbate in 10 mM Tris buffer, pH 7.4, at 37° C. A control reaction was carried out using the same conditions as the cleavage reaction, but lacking the Cu-peptide complex. The reactions were quenched with a loading buffer containing 0.5 M EDTA.
Agarose gel electrophoresis (0.8%) containing ethidium bromide was performed under standard conditions. DNA samples were run on horizontal gels in 1×TAE buffer for 90 min at […].
Quantitation of closed circular, nicked and linear DNA was made by densitometric analysis of ethidium bromide containing agarose gels. Quantitation was performed by fluorescence imaging by use of a Gel-Doc 1000 (BioRad) and data analysis with Multianalysis software (version 1.1) provided by the manufacturer using the volume quantitation method. In all cases, background fluorescence was subtracted by reference to a lane containing no DNA. A correction factor of 1.47 was used for supercoiled DNA, since the ability of ethidium bromide to intercalate into supercoiled DNA (form I) is decreased relative to nicked (form II) and linear DNA (form III). The fraction of each form of DNA was calculated by dividing the intensity of each band by the total intensities of all the bands in the lane. All results were obtained from experiments that were performed at least in triplicate.
Consequently, the reaction was considered in terms of the standard rate law shown in equation 3. The initial rate (V0) corresponding to less than 5% conversion was considered as a function of [complex]^+ (equation 4 and 5). Rate=V=d[DNA]/dt=kobs[complex]t^m (3) • where kobs=kn, [DNA] when t=0, V0=kobs[complex]0^m (4) and ln V0=m ln[complex]0+ln kobs (5) A plot of ln V0 versus ln [[GGH-Cu]^−]0 at constant DNA concentration produced a straight line relationship (R^2=0.99) (FIG. 27A).
Investigation of DNA linearization. Following cleavage, the fraction of full length linear DNA, f(III), is related to the number, n2, of double-strand breaks per molecule given by the first term of a Poisson distribution (equation 1). f(III)=n2exp(−n2) (1) The sum of single-strand, n1, and double-strand, n2, breaks per molecule (n1+n2) was determined from the fraction f(I) of supercoiled DNA remaining after treatment with the [peptide-Cu] reagent. f(I)=exp[−(n1+n2)] […] In these studies, both n1 and n2 were calculated by use of equations (1) and (2).

The subject of assay [2] is HCV IRES RNA. The assay can be described thus: HCV IRES RNA cleavage, denaturing gel. The class given is biochemical. Conditions: RNA 2 μM, RNA to metal complex 1 to 10, 1 mM ascorbic acid, 37° C., 24 hours. The protocol: The cleavage of HCV IRES RNA by GGHG-(D) peptide copper complexes was studied. […] The HCV IRES RNA cleavage reactions by peptide copper complexes, free Cu^2+, or other peptide metal complexes were carried out at 37° C. in a buffer of 50 mM HEPES pH 7.0, 100 mM NaCl, 2 mM MgCl2. After reactions, 2 μL of loading buffer containing 10% glycerol, 0.05M EDTA, and 6M urea was added into each 10 μL reaction mixture and was then heated at 95° C. for 5 min before loading into 20% acrylamide, 8M urea gel with 0.5×TAE buffer and running voltage around 100 V for overnight. Before cleavage reaction, HCV IRES RNA was heated at 95° C. for 5 min and cooled to room temperature in order to fold into correct structure.
The concentration of RNA in cleavage reaction is 2 μM. The ratio of RNA to metal complexes is 1 to 10. The oxidative cleavage reaction is performed by adding ascorbic acid to a final concentration of 1 mM and a total volume of 10 μL at 37° C. for 24 hours. The result of the cleavage reaction is obtained by running a 20% denaturing polyacrylamide gel. […] No hydrolytic product has been observed from the result. […]
The time-dependence of cleavage was also examined. […] After the reaction is finished, the result of the reaction is analyzed by running 20% acrylamide gel. The cleavage effect by peptide copper complexes is analyzed by the intensity of the fluorescent image of each band by Biorad GelDoc. […]

Assay [3] has as its target HCV IRES RNA. The assay can be described thus: Binding to fluorescein-labeled HCV IRES, 96-well fluorescent reader. Conditions: 10 nM HCV IRES, 50 mM HEPES pH 7.0, 100 mM NaCl, 2 mM MgCl2; read-out: dissociation constant between HCV IRES and the ligand. The protocol: The binding constants for peptides to HCV IRES was determined by fluorescence methods. The sequence of the HCV IRES RNA is: […] (SEQ ID NO: 33). The sequence of the peptide recognition motif is: Y-(D)-RFK. The sequence of the metal binding peptide is: GGH. The sequence of the ligand having a metal binding domain and a recognition domain is GGHGY-(D)-RFK, where (D) indicates a (D) configuration amino acid.
A 10 nM HCV IRES with a fluoroscein label was titrated with increasing concentrations of the ligand, ranging from 5 to 1000 nM in a 50 mM HEPES pH 7.0, 100 mM NaCl, 2 mM MgCl2 to a total volume […]. The water used in this experiment was treated with DEPC at 37° C. overnight and autoclaved. HCV IRES RNA was heated at 95° C. for three minutes, and then slowly cooled to the room temperature. The binding event was determined by 96-well fluorescent reader with excitation wavelength at 494 nm and emission wavelength at 520 nm. The result data was plotted as fraction versus peptide concentration (FIG. 29) and then fitted with one site-binding model, where y is equal to API, and x is peptide concentration. y=Bx/(Kd+x)

Another assay has as its target HIV RRE RNA. The assay can be described thus: Fluorescence quenching binding to 5'-fluorescein labeled RRE RNA. Conditions: 20 mM Hepes, 100 mM NaCl, pH 7.4, room temperature. The protocol: (§1) A 6 nM solution of 5′-fluorescein labeled RRE RNA (molecular concentration) was prepared in 20 mM Hepes buffer, 100 mM NaCl, pH=7.4. A 1 μl aliquot of 5 μM (for RRE test) or 25 μM (for TAR test) peptide or Cu-peptide complex was measured in a 300 μl quartz cuvette at room temperature using a Perkin Elmer LS50B spectrofluorimeter, with excitation (slit=6) and emission (slit=6) wavelengths set at 490 nm and 515 nm, respectively. Dissociation constants were obtained by fitting fluorescence quenching date to a one site binding equation r=Bx/(Kd+X) with binding function r (where r=(yt−y0)/(yfinal−yinitial)) versus x as peptide or Cu-peptide complex concentration (FIG. 17). The values for the dilution effect have already been subtracted from each point. Since our Cu-Rev1 complex has very little absorbance (ε515˜30 M^−1cm^−1), the inner filter effect is negligible in this assay.

The test system of assay [4] is GFP-RRE construct (RRE RNA fused downstream of GFP mRNA). The format is cell-based, Escherichia coli. Conditions: 10 μM final concentration; for GFP (GFP-RRE construct) expression, fluorescence intensity/total protein (mg) of control: control without any treatment.
Description: Escherichia coli strain BL21 (DE3) cells containing pET-21 GFP (as non-specific cleavage control) or pET-21GFP-RRE plasmid were grown to an OD600 of around 0.6, and the over-expression was induced with 0.5 mM IPTG at 37° C. incubation. The cell pellets from 500 1 culture were resuspended in resuspension buffer,^3 then lysed with sonicating. After centrifugation (14,000 rpm for 20 min), the cell lysate for each sample was transferred onto 96 well plate and the fluorescence of GFP protein was monitored by a Perkin Elmer LS50B spectrofluorimeter. Excitation and emission wavelengths were set to 390 nm and 510 nm, respectively. The amount of total protein in each cell lysate was measured with Bio-Rad protein assay.
Basically, once the RRE RNA fused downstream of the GFP mRNA is recognized and cleaved by metal-rev peptide complexes, the expression level of GFP protein will decrease accordingly, which can be monitored by the fluorescence intensity.
The expression level of GFP (GFP-RRE construct) was managed by the fluorescent emission intensity at 510 nm, with λex=390 nm. […] To correct the influence of the total number of cells lysated, the fluorescent emission intensity at 510 nm was divided by the amount of total protein for each sample.
For another assay, the target named is HIV TAR RNA. The assay can be described thus: Fluorescence quenching binding to 5' FL-labeled TAR RNA (binding specificity). Conditions: 20 mM Hepes, 100 mM NaCl, pH 7.4, room temperature. The protocol: as §1

`[Cu+2]` [Cu^2+(aq), reference compound]: the “RRE RNA cleavage (PAGE / mass spectrometry)” value with RRE RNA is reported as “random cleavage”. Moreover, the “DNA cleavage products / pattern on gel” value in assay [1] (with ascorbate) was “smear pattern”. Also, the “HCV IRES RNA cleavage (gel)” value in the assay with HCV IRES RNA [2] is on record as “efficiency is significantly lower”.
For GGHGY-(D)-RFK [the ligand], at HCV IRES RNA [3], the Kd was determined as 5.2 nM.
As to GGHTRQARRNRRRRWRERQR [Rev1], in the assay on RRE RNA, the “RRE RNA cleavage (PAGE / mass spectrometry)” value is given as “no reaction was observed”. For the same compound, the Kd on HIV RRE RNA was around 30 nM; at HIV TAR RNA, around 5000 nM. In assay [4], the “GFP (GFP-RRE construct) expression, fluorescence intensity/total protein (mg) of control” value is “around 40%”.
“TRQARRNRRRRWRERQR [Rev peptide, reference compound]”: the “effect on GFP (GFP-RRE construct) expression” value in assay [4] was “No decrease”.
On to “[GGH-Cu]^−: complex of peptide GGH with divalent copper (Gly-Gly-His; also: complex with divalent copper)”, for which the “time to quantitative production of nicked plasmid DNA (form II)” value in assay [1] ([DNA]=50 μM, complex 25 μM, ascorbate 250 μM) was at most 28 min. For the same compound, the “kobs, pseudo-first order disappearance of supercoiled DNA” value in assay [1] ([DNA]=50 μM, complex 25 μM, ascorbate 250 μM, 10 mM Tris pH 7.4, 37° C.) was around 0.07 min⁻¹. For the same compound, the “k2, second-order rate constant of DNA cleavage” value in assay [1] (from ln V0 plots, with ascorbate) is around 39 M⁻¹ s⁻¹. For the same compound, the “concentration at which DNA cleavage activity is evident” value in assay [1] (in the presence of ascorbate) worked out at 10 µM. Moreover, the “DNA cleavage products / pattern on gel” value in assay [1] (with ascorbate) is “linear DNA was not found”.
For “copper complex of Rev1 peptide GGHTRQARRNRRRRWRERQR [Cu-Rev1]”, in the assay with RRE RNA (hydrolytic condition), the “RRE RNA cleavage in the absence of ascorbate” value is reported as “much slower pace”. In addition, the entries for the “t1 of RRE RNA substrate decrease” value in the assay on RRE RNA (hydrolytic condition) and with RRE RNA (oxidative condition with ascorbate) were 6.36 h and 4.75 h, respectively. Moreover, the “RRE RNA cleavage (PAGE / mass spectrometry)” value in the assay with RRE RNA (listed as Cu-Rev1 peptide complex) is reported as “three specific cleavage sites”; in the assay with RRE RNA (listed as Cu-peptide complex) it was “effective”. Moreover, the Kd was around 35 nM on HIV RRE RNA and around 5000 nM at HIV TAR RNA. The “GFP (GFP-RRE construct) expression, fluorescence intensity/total protein (mg) of control” value in assay [4] is given as “around 40%”.
